Laboratory results taken from US20100016232A1, “Treatment Of Inflammatory Diseases With Mammal Beta Defensins” (Novozymes A/S, priority 2008, published 2010).
Where no end group is shown, it is not given here.

Columns and labels:
[1] = test system: TNF production from human peripheral blood mononuclear cells (PBMC); assay: TNF production from human PBMC, Cytometric Bead Array; assay type: cell-based
Experimental: (§1) Peripheral blood was drawn from healthy volunteers (with approval from the relevant ethical committee in Denmark). Heparinized blood was diluted 1/1 v/v with RPMI and were subjected to Ficoll density centrifugation within 2 h of drawing. Plasma was collected from the top from individual donors and was kept on ice until it was used at 2% in the culture medium (autologous culture medium). Isolated PBMC were resuspended in autologous culture medium and seeded in 96-well culture plates with 255.000 cells per well in a total of 200 μl. […] The concentrations used for stimulation were optimized on 3 different donors in initial experiments, for LPS two different concentrations were used to be sure to be on a cytokine level that is possible to modulate. In some experiments PBMC were treated with Dexamethason and Indomethacin alone and together with LPS or LTA as a control on downregulation of inflammatory cytokines. The supernatants were collected after incubation at 37° C. for 24 hours, and stored at −80° C. until cytokine measurement. Viability was measured by Alamar Blue (Biosource, DALL 1100) in all experiments and in some cases also by MTS (Promega) according to manufacturer's instruction and was in some experiments also judged by counting of the cells by a Nucleocounter.
(§2) Cytokine production in supernatants was measured by flow cytometry with a human inflammation cytometric bead array (CBA) according to manufacturer's instructions (BD) on a FACSarray flow cytometer. The following cytokines were measured: IL-8, IL-1β, IL-10, TNF, IL-12 p70, IL-6. In some experiments, cytokines were measured by ELISA kits from R&D systems (IL-10, TNF-α, IL-1β) according to the manufacturer' instruction.

[2] = test system: PBMC; assay: PBMC viability, MTS assay; assay type: cell-based, human; details: 24 h
Experimental: as §1

[3] = test system: TNF-alfa secretion from PBMC; assay: TNF-alfa secretion from PBMC, ELISA; assay type: cell-based, human
Experimental: as §1, §2
(§3) In Tables 6, 7 and 8, supernatants from another donor were analysed for cytokines by ELISA instead of by a cytometric bead array by flowcytometry and here the same were observed, although the sensitivity of the assay is lower and the detection limit much higher and therefore the effects were not as significant.

[4] = test system: IL-10 secretion from PBMC; assay: IL-10 secretion from PBMC, ELISA; assay type: cell-based, human
Experimental: as §1, §2, §3

[5] = test system: DSS-induced colitis in the mouse; assay: 10-day DSS-induced colitis, Disease Activity Index (Example 5); assay type: in vivo
Experimental: Animals were divided into 5 experimental groups.
Colitis was induced in mice by supplementing their drinking water with DSS 2% for 7 days.
Daily clinical assessment of DSS-treated animals was carried out, with the calculation of a validated clinical Disease Activity Index (DAI) ranging from 0 to 4 according to the following parameters: stool consistency, presence or absence of rectal bleeding and weight loss:
Bodyweight loss was calculated as the percent difference between the original bodyweight (Day 1) and the actual bodyweight on each experimental day (2-10).
The appearance of diarrhoea is defined as mucus/faecal material adherent to anal fur. Rectal bleeding is defined as diarrhoea containing visible blood/mucus or gross rectal bleeding. The maximum score of the DAI each day is 12.

[6] = LPS 0.6 ng/ml, test compound 1 μg/ml, Table 16
[7] = LPS 0.6 ng/ml, test compound 10 μg/ml, Table 16
[8] = LPS 0.6 ng/ml, test compound 40 μg/ml, Table 16
[9] = LPS 20 ng/ml, test compound 1 μg/ml, Table 16
[10] = LPS 20 ng/ml, test compound 10 μg/ml, Table 16
[11] = LPS 20 ng/ml, test compound 40 μg/ml, Table 16

“hBD2: human beta defensin 2, SEQ ID NO:2; produced recombinantly in E. coli (Example 1); hBD2 of Tables 16-18 was prepared by chemical synthesis (GIGDPVTCLKSGAICHPVFCPRRYKQIGTCGLPGTKCCKKP; ends and bridges not checked; cysteine pairing not given here; listed as Homo sapiens)” gave a TNF ([1]; LPS 0.6 ng/ml, hBD2 1 μg/ml, Table 1) of 944.8 pg/mL, a TNF ([1]; LPS 0.6 ng/ml, hBD2 1 μg/ml, Table 11) of 170 pg/mL and a TNF ([1]; LPS 0.6 ng/ml, hBD2 10 μg/ml, Table 1) of 1076.4 pg/mL. It also gave a TNF ([1]; LPS 0.6 ng/ml, hBD2 10 μg/ml, Table 11) of 200 pg/mL, a TNF ([1]; LPS 0.6 ng/ml, hBD2 100 μg/ml, Table 1) of 634.2 pg/mL and a TNF ([1]; LPS 0.6 ng/ml, hBD2 100 μg/ml, Table 11) of 0 pg/mL. The TNF ([1]; LPS 0.6 ng/ml, hBD2 1000 μg/ml, Table 11) was 3 pg/mL, the TNF [1, 6] was 242 pg/mL and the “TNF % of control” value [1, 6] was 33%. For the same substance, the TNF [1, 7] was 304 pg/mL, the “TNF % of control” value [1, 7] was 42% and the TNF [1, 8] was 176 pg/mL. The “TNF % of control” value [1, 8] was 24%, the TNF ([1]; LPS 20 ng/ml, hBD2 1 μg/ml, Table 1) was 1526.9 pg/mL and the TNF ([1]; LPS 20 ng/ml, hBD2 1 μg/ml, Table 11) was 6240 pg/mL. For the same substance, the TNF ([1]; LPS 20 ng/ml, hBD2 10 μg/ml, Table 1) was 1306.6 pg/mL, the TNF ([1]; LPS 20 ng/ml, hBD2 10 μg/ml, Table 11) was 350 pg/mL and the TNF ([1]; LPS 20 ng/ml, hBD2 100 μg/ml, Table 1) was 1733.9 pg/mL. For the same substance, the TNF ([1]; LPS 20 ng/ml, hBD2 100 μg/ml, Table 11) was 38 pg/mL, the TNF ([1]; LPS 20 ng/ml, hBD2 1000 μg/ml, Table 11) was 0 pg/mL and the TNF [1, 9] was 411 pg/mL. For the same substance, the “TNF % of control” value [1, 9] was 19%, the TNF [1, 10] was 132 pg/mL and the “TNF % of control” value [1, 10] was 6%. The TNF [1, 11] was 52 pg/mL, the “TNF % of control” value [1, 11] was 2% and the TNF ([1]; LPS 20 ng/ml, treatment 1 μg/ml, Table 21) was 633 pg/mL. For the same substance, the TNF ([1]; LPS 20 ng/ml, treatment 10 μg/ml, Table 21) was 359 pg/mL, the TNF ([1]; LPS 20 ng/ml, treatment 100 μg/ml, Table 21) was 342 pg/mL and the TNF ([1]; LTA 1.25 μg/ml, hBD2 1 μg/ml, Table 1) was 711.5 pg/mL. For the same substance, the TNF ([1]; LTA 1.25 μg/ml, hBD2 1 μg/ml, Table 11) was 3900 pg/mL, the TNF ([1]; LTA 1.25 μg/ml, hBD2 10 μg/ml, Table 1) was 494.7 pg/mL and the TNF ([1]; LTA 1.25 μg/ml, hBD2 10 μg/ml, Table 11) was 2330 pg/mL. For the same substance, the TNF ([1]; LTA 1.25 μg/ml, hBD2 100 μg/ml, Table 1) was 375.2 pg/mL, the TNF ([1]; LTA 1.25 μg/ml, hBD2 100 μg/ml, Table 11) was 1150 pg/mL and the TNF ([1]; LTA 1.25 μg/ml, hBD2 1000 μg/ml, Table 11) was 110 pg/mL. For the same substance, the TNF ([1]; Medium, hBD2 1 μg/ml, Table 1) was 4.2 pg/mL, the TNF ([1]; Medium, hBD2 1 μg/ml, Table 9) was 3.4 pg/mL and the TNF ([1]; Medium, hBD2 1 μg/ml, Table 11) was 0 pg/mL. It also gave a TNF ([1]; Medium, hBD2 10 μg/ml, Table 1) of 2.6 pg/mL, a TNF ([1]; Medium, hBD2 10 μg/ml, Table 9) of 3.7 pg/mL and a TNF ([1]; Medium, hBD2 10 μg/ml, Table 11) of 0 pg/mL. For the same substance, the TNF ([1]; Medium, hBD2 100 μg/ml, Table 1) was 2.9 pg/mL, the TNF ([1]; Medium, hBD2 100 μg/ml, Table 9) was 3.6 pg/mL and the TNF ([1]; Medium, hBD2 100 μg/ml, Table 11) was 0 pg/mL. For the same substance, the TNF ([1]; Medium, hBD2 1000 μg/ml, Table 11) was 0 pg/mL, the TNF ([1]; Medium, test compound 1 μg/ml, Table 16) was 0 pg/mL and the TNF ([1]; Medium, test compound 10 μg/ml, Table 16) was 0 pg/mL. For the same substance, the TNF ([1]; Medium, test compound 40 μg/ml, Table 16) was 0 pg/mL, the TNF ([1]; Medium, treatment 1 μg/ml, Table 21) was 3 pg/mL and the TNF ([1]; Medium, treatment 10 μg/ml, Table 21) was 2 pg/mL. For the same substance, the TNF ([1]; Medium, treatment 100 μg/ml, Table 21) was 2 pg/mL, the TNF ([1]; PBMC stimulated with Pam3CSK4 (TLR2-TLR1 ligand), results not shown) was “able to downregulate TNF” and the TNF ([1]; PGN 40 μg/ml, hBD2 1 μg/ml, Table 9) was 809.9 pg/mL. For the same substance, the TNF ([1]; PGN 40 μg/ml, hBD2 10 μg/ml, Table 9) was 362.0 pg/mL, the TNF ([1]; PGN 40 μg/ml, hBD2 100 μg/ml, Table 9) was 274.9 pg/mL and the “Viability, MTS” value ([2]; LPS 0.6 ng/ml, hBD2 1 μg/ml) was 1.5 Abs 490 nm. For the same substance, the “Viability, MTS” value ([2]; LPS 0.6 ng/ml, hBD2 10 μg/ml) was 2.0 Abs 490 nm, the “Viability, MTS” value ([2]; LPS 0.6 ng/ml, hBD2 100 μg/ml) was 1.6 Abs 490 nm and the “Viability, MTS” value ([2]; LPS 20 ng/ml, hBD2 1 μg/ml) was 1.6 Abs 490 nm. The “Viability, MTS” value ([2]; LPS 20 ng/ml, hBD2 10 μg/ml) was 1.8 Abs 490 nm, the “Viability, MTS” value ([2]; LPS 20 ng/ml, hBD2 100 μg/ml) was 1.9 Abs 490 nm and the “Viability, MTS” value ([2]; Medium, hBD2 1 μg/ml) was 1.3 Abs 490 nm. For the same substance, the “Viability, MTS” value ([2]; Medium, hBD2 10 μg/ml) was 1.5 Abs 490 nm, the “Viability, MTS” value ([2]; Medium, hBD2 100 μg/ml) was 1.2 Abs 490 nm and the TNF-α ([3]; LPS 0.6 ng/ml, hBD2 1 μg/ml) was 0.70 ng/mL. For the same substance, the TNF-α ([3]; LPS 0.6 ng/ml, hBD2 10 μg/ml) was 0.59 ng/mL, the TNF-α ([3]; LPS 0.6 ng/ml, hBD2 100 μg/ml) was 0.41 ng/mL and the TNF-α ([3]; LPS 20 ng/ml, hBD2 1 μg/ml) was 1.18 ng/mL. It also gave a TNF-α ([3]; LPS 20 ng/ml, hBD2 10 μg/ml) of 0.49 ng/mL, a TNF-α ([3]; LPS 20 ng/ml, hBD2 100 μg/ml) of 0.53 ng/mL and a TNF-α ([3]; LTA 1.25 μg/ml, hBD2 1 μg/ml) of 0.65 ng/mL. The TNF-α ([3]; LTA 1.25 μg/ml, hBD2 10 μg/ml) was 0.27 ng/mL, the TNF-α ([3]; LTA 1.25 μg/ml, hBD2 100 μg/ml) was 0.21 ng/mL and the IL-10 ([4]; LPS 0.6 ng/ml, hBD2 10 μg/ml) was 0.04 ng/mL. The IL-10 ([4]; LPS 0.6 ng/ml, hBD2 100 μg/ml) was 0.14 ng/mL, the IL-10 ([4]; LPS 20 ng/ml, hBD2 10 μg/ml) was 0.34 ng/mL and the IL-10 ([4]; LPS 20 ng/ml, hBD2 100 μg/ml) was 0.46 ng/mL. It also gave a DAI score ([5]; 0.1 mg/kg i.v. daily, Day 1) of 0.00, a DAI score ([5]; 0.1 mg/kg i.v. daily, Day 2) of 0.20 and a DAI score ([5]; 0.1 mg/kg i.v. daily, Day 3) of 0.80. It also gave a DAI score ([5]; 0.1 mg/kg i.v. daily, Day 4) of 2.90, a DAI score ([5]; 0.1 mg/kg i.v. daily, Day 5) of 2.80 and a DAI score ([5]; 0.1 mg/kg i.v. daily, Day 6) of 3.20. For the same substance, the DAI score ([5]; 1 mg/kg i.v. daily, Day 1) was 0.00, the DAI score ([5]; 1 mg/kg i.v. daily, Day 2) was 0.00 and the DAI score ([5]; 1 mg/kg i.v. daily, Day 3) was 0.22. The DAI score ([5]; 1 mg/kg i.v. daily, Day 4) was 2.22, the DAI score ([5]; 1 mg/kg i.v. daily, Day 5) was 2.44 and the DAI score ([5]; 1 mg/kg i.v. daily, Day 6) was 2.89. The DAI score ([5]; 1 mg/kg i.v. daily, Day 7) was 2.22, the DAI score ([5]; 1 mg/kg i.v. daily, Day 8) was 3.67 and the DAI score ([5]; 1 mg/kg i.v. daily, Day 9) was 5.22. It also gave a DAI score ([5]; 10 mg/kg i.v. daily, Day 1) of 0.00, a DAI score ([5]; 10 mg/kg i.v. daily, Day 2) of 0.60 and a DAI score ([5]; 10 mg/kg i.v. daily, Day 3) of 1.00. The DAI score ([5]; 10 mg/kg i.v. daily, Day 4) was 3.67, the DAI score ([5]; 10 mg/kg i.v. daily, Day 5) was 3.11 and the DAI score ([5]; 10 mg/kg i.v. daily, Day 6) was 3.22. It also gave a DAI score ([5]; 10 mg/kg i.v. daily, Day 7) of 2.11, a DAI score ([5]; 10 mg/kg i.v. daily, Day 8) of 4.11 and a DAI score ([5]; 10 mg/kg i.v. daily, Day 9) of 6.78. The DAI score ([5]; 10 mg/kg i.v. daily, Day 10) was 7.33.
